Test results: ChEMBL document CHEMBL6109143, “Adamantane-Quinoxalone Hybrids: Precision Chemotypes and Their Molecular Mechanisms in Acute Myeloid Leukemia” (J Med Chem, 2025)
pIC50: −log10 of the molar value. “And” between values parts separate entries of the source, which are not always exact repeats. Identical values can stand only once.

Assays:
Kasumi 1 [1] = assay: Cytotoxicity against human Kasumi 1 cells assessed as reduction in cell viability at 50 uM incubated for 24 hrs by MTT assay relative to control; format: functional
THP-1 = assay: Cytotoxicity against human THP-1 cells harboring chromosomal translocation(9;11) assessed as reduction in cell viability incubated for 24 hrs by MTT assay; format: functional, cell-based; conditions: THP-1, 24 h
Kasumi 1 [2] = assay: Cytotoxicity against human Kasumi 1 cells harboring chromosomal translocation(8;21) assessed as reduction in cell viability incubated for 24 hrs by MTT assay; format: functional, cell-based; conditions: Kasumi 1, 24 h

In the case of CCCCCCN1C(=O)C(C23CC4CC(CC(C4)C2)C3)Nc2ccccc21 (centres undefined), the Activity (Kasumi 1 [1]) was >30%.

With O=C1C(C23CC4CC(CC(C4)C2)C3)Nc2cc3ccccc3cc2N1Cc1ccccc1 (centres undefined) the Activity (Kasumi 1 [1]) was >30%.

For CSc1ccc(CN2C(=O)C(C34CC5CC(CC(C5)C3)C4)Nc3ccccc32)cc1 (centres undefined), the Activity (Kasumi 1 [1]) was >30%.

In the case of O=C1C(C23CC4CC(CC(C4)C2)C3)Nc2ccccc2N1c1ccc(-c2ccccc2)cc1 (centres undefined), the Activity (Kasumi 1 [1]) was >30%.

In the case of O=C1C(C23CC4CC(CC(C4)C2)C3)Nc2ccccc2N1c1ccc(OC(F)(F)F)cc1 (centres undefined), the Activity (Kasumi 1 [1]) was >30%.

In the case of O=C1C(C23CC4CC(CC(C4)C2)C3)Nc2ccccc2N1Cc1cccc(-c2ccccc2)c1 (centres undefined), the Activity (Kasumi 1 [1]) was >30%.

Cc1ccc(CN2C(=O)C(C34CC5CC(CC(C5)C3)C4)Nc3cc(-c4ccc5c(c4)NC(C46CC7CC(CC(C7)C4)C6)C(=O)N5Cc4ccc(C)cc4)ccc32)cc1 (centres undefined) was tested, and the Activity (Kasumi 1 [1]) was >30%.

With CCCCCCCCCCCCN1C(=O)C(C23CC4CC(CC(C4)C2)C3)Nc2ccccc21 (centres undefined) the Activity (Kasumi 1 [1]) was >30%.

With Cc1ccc(CN2C(=O)C(C34CC5CC(CC(C5)C3)C4)Nc3ccccc32)cc1 (centres undefined) the Activity (Kasumi 1 [1]) was >30%.

For C=CCCCCN1C(=O)C(C23CC4CC(CC(C4)C2)C3)Nc2ccccc21 (centres undefined), the Activity (Kasumi 1 [1]) was >30%.

O=C1C(C23CC4CC(CC(C4)C2)C3)Nc2cc(Cl)c(Cl)cc2N1Cc1ccccc1 (centres undefined) was tested, and the Activity (Kasumi 1 [1]) was >30%.

O=C1C(C23CC4CC(CC(C4)C2)C3)Nc2ccccc2N1CC1CC1 (centres undefined) was tested, and the pIC50 (THP-1) was < 4.30, the Activity (Kasumi 1 [1]; 24 h, 50 µM) was <30% and >30% and the pIC50 (Kasumi 1 [2]) was 4.33.
